Data on 23 compounds can be found in patent publication US10336762B2 (priority 2017, dated 2019).

One assay concerns the target IRAK4 enzyme (Homo sapiens (Human), UniProt Q9NWZ3). As to the kind of experiment: biochemical. The format is biochemical. The following applies: IRAK4 enzyme, TR-FRET, 500 μM ATP.
In a further assay the test system is TNFα. The experiment in a line: cells. The following applies: Homo sapiens, Monocyte, LPS-stimulated human monocytes, TNFα by TR-FRET; read-out: EC50 TNF. The format is cell-based, human. Background: TR-FRET usually uses a lanthanide donor and a delayed reading to cut background.

IRAK4 enzyme, sequence (Q9NWZ3 whole entry): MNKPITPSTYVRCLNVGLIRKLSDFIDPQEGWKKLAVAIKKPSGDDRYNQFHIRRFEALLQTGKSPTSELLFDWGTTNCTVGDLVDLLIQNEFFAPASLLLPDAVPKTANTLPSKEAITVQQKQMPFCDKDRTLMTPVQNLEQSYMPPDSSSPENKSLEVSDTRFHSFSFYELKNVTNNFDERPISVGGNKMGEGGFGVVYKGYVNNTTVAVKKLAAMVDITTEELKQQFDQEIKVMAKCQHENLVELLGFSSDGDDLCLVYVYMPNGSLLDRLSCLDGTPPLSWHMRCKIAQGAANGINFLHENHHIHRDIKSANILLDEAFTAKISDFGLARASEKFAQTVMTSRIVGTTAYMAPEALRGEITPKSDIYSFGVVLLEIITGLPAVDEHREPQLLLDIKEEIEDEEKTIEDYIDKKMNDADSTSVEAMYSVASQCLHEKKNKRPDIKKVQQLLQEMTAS

As a reminder, the IC50 is the concentration that gives 50% inhibition. Read a low IC50 as higher potency. What is called EC50 is the concentration at which the effect is half-maximal. The compound `CCCOc1cncc(Nc2cc(-c3ccc4cc(C#N)cnn34)ncc2C(=O)NC[C@@H](F)C(C)(C)O)c1` [Example 849, (R)-6-(3-cyanopyrrolo[1,2-b]pyridazin-7-yl)-N-(2-fluoro-3-hydroxy-3-methylbutyl)-4-((5-propoxy-pyridin-3-yl)amino) nicotinamide] had a half-inhibitory concentration (IC50) against IRAK4 enzyme of less than 1 nM. In the assay on TNFα, the concentration for a half-maximal effect (EC50) is 11 nM.

Turning to `CC(C)(O)[C@H](F)CNC(=O)c1cnc(-c2ccc3cc(C#N)cnn23)cc1Nc1cnc2c(c1)OCCO2` [Example 850, (R)-6-(3-cyanopyrrolo[1,2-b]pyridazin-7-yl)-4-((2,3-dihydro-[1,4]dioxino[2,3-b]pyridin-7-yl)amino)-N-(2-fluoro-3-hydroxy-3-methylbutyl)nicotinamide], the IC50 at IRAK4 enzyme is less than 1 nM. Further, the EC50 with TNFα amounted to 10 nM.

With `CC(C)Oc1cncc(Nc2cc(-c3ccc4cc(C#N)cnn34)ncc2C(=O)NC[C@@H](F)C(C)(C)O)c1` [Example 851, (R)-6-(3-cyanopyrrolo[1,2-b]pyridazin-7-yl)-N-(2-fluoro-3-hydroxy-3-methylbutyl)-4-((5-isopropoxypyridin-3-yl)amino)nicotinamide], the IC50 against IRAK4 enzyme is less than 1 nM. Besides, in the assay with TNFα, the half-maximal effective concentration (EC50) was 12 nM.

Consider `COc1cc(Nc2cc(-c3ccc4cc(C#N)cnn34)ncc2C(=O)NC[C@@H](F)C(C)(C)O)cnc1OC` [Example 853, (R)-6-(3-cyanopyrrolo[1,2-b]pyridazin-7-yl)-4-((5,6-dimethoxypyridin-3-yl)amino)-N-(2-fluoro-3-hydroxy-3-methylbutyl) nicotinamide], for which, on IRAK4 enzyme, the 50% inhibitory concentration (IC50) was determined as 14 nM. Further, the concentration giving a half-maximal response (EC50) in the assay with TNFα is 127 nM.

The compound `CN1CCOc2cc(Nc3cc(-c4ccc5cc(C#N)cnn45)ncc3C(=O)NC[C@@H](F)C(C)(C)O)ccc21` [Example 854, (R)-6-(3-cyanopyrrolo[1,2-b]pyridazin-7-yl)-N-(2-fluoro-3-hydroxy-3-methylbutyl)-4-((4-methyl-3,4-dihydro-2H-benzo[b] [1,4]oxazin-7-yl)amino)nicotinamide] had an IC50 at IRAK4 enzyme of 1 nM. For the same compound, the 50% effective concentration (EC50) with TNFα worked out at 10 nM.

In turn, `CC(C)(O)[C@H](F)CNC(=O)c1cnc(-c2ccc3cc(C#N)cnn23)cc1Nc1cnc2c(c1)OCCN2` [Example 855, (R)-6-(3-cyanopyrrolo[1,2-b]pyridazin-7-yl)-4-((3,4-dihydro-2H-pyrido[3,2-b][1,4]oxazin-7-yl)amino)-N-(2-fluoro-3-hydroxy-3-methylbutyl)nicotinamide] displayed an IC50 against IRAK4 enzyme of less than 1 nM. Moreover, the EC50 with TNFα was determined as 9 nM.

The compound `CN1CCOc2cc(Nc3cc(-c4ccc5cc(C#N)cnn45)ncc3C(=O)NC[C@@H](F)C(C)(C)O)cnc21` [Example 856, (R)-6-(3-cyanopyrrolo[1,2-b]pyridazin-7-yl)-N-(2-fluoro-3-hydroxy-3-methylbutyl)-4-((4-methyl-3,4-dihydro-2H-pyrido[3,2-b][1,4]oxazin-7-yl)amino)nicotinamide] registered an IC50 on IRAK4 enzyme of 1 nM. Also, in the assay on TNFα, the 50% effective concentration (EC50) stood at 24 nM.

In the case of `CC(C)(O)[C@H](F)CNC(=O)c1cnc(-c2ccc3cc(C#N)cnn23)cc1Nc1cncc(OCC(F)(F)F)c1` [Example 857, (R)-6-(3-cyanopyrrolo[1,2-b]pyridazin-7-yl)-N-(2-fluoro-3-hydroxy-3-methylbutyl)-4-((5-(2,2,2-trifluoroethoxy)pyridin-3-yl)amino)nicotinamide], the IC50 on IRAK4 enzyme is less than 1 nM. In addition, the half-maximal effective concentration (EC50) with TNFα came to 9 nM.

In the case of `N#Cc1cnn2c(-c3cc(Nc4cnc5c(c4)OCCO5)c(C(=O)N[C@H]4CC[C@H](NC(=O)C5CC5)CC4)cn3)ccc2c1` [Example 858, 6-(3-cyanopyrrolo[1,2-b]pyridazin-7-yl)-N-((1r,4r)-4-(cyclopropanecarboxamido)cyclohexyl)-4-((2,3-dihydro-[1,4]dioxino[2,3-b]pyridin-7-yl)amino)nicotinamide], the IC50 at IRAK4 enzyme is less than 1 nM. Moreover, the concentration for a half-maximal effect (EC50) in the assay with TNFα turned out to be 20 nM.

Regarding `CN1CCOc2cc(Nc3cc(-c4ccc5cc(C#N)cnn45)ncc3C(=O)N[C@H]3CC[C@H](NC(=O)C4CC4)CC3)ccc21` [Example 859, 6-(3-cyanopyrrolo[1,2-b]pyridazin-7-yl)-N-((1r,4r)-4-(cyclopropanecarboxamido)cyclohexyl)-4-((4-methyl-3,4-dihydro-2H-benzo[b][1,4]oxazin-7-yl)amino)nicotinamide], at IRAK4 enzyme, the IC50 amounted to 3 nM. The EC50 with TNFα was found to be 89 nM.

At IRAK4 enzyme, `CN1CCOc2cc(Nc3cc(-c4ccc5cc(C#N)cnn45)ncc3C(=O)N[C@H]3CC[C@H](NC(=O)N4CCOCC4)CC3)ccc21` [Example 860, N-((1r,4r)-4-(6-(3-cyano-pyrrolo[1,2-b]pyridazin-7-yl)-4-((4-methyl-3,4-dihydro-2H-benzo[b][1,4]oxazin-7-yl)amino)nicotin-amido)cyclohexyl) morpholine-4-carboxamide] returned an IC50 of 2 nM. In addition, the concentration giving a half-maximal response (EC50) with TNFα was 31 nM.

`N#Cc1cnn2c(-c3cc(Nc4cnc5c(c4)OCCO5)c(C(=O)N[C@H]4CC[C@H](NC(=O)N5CCOCC5)CC4)cn3)ccc2c1` [Example 861, N-((1r,4r)-4-(6-(3-cyano-pyrrolo[1,2-b]pyridazin-7-yl)-4-((2,3-dihydro-[1,4]dioxino[2,3-b]pyridin-7-yl)amino)nicotinamido)cyclohexyl)morpholine-4-carboxamide]: the IC50 against IRAK4 enzyme is less than 1 nM. Besides, in the assay with TNFα, the EC50 is 16 nM.

At IRAK4 enzyme, `CC(C)(O)[C@H](F)CNC(=O)c1cnc(-c2ccc3cc(C#N)cnn23)cc1Nc1cnc2c(c1)COCC2` [Example 862, (R)-6-(3-cyanopyrrolo[1,2-b]pyridazin-7-yl)-4-((7,8-dihydro-5H-pyrano[4,3-b]pyridin-3-yl)amino)-N-(2-fluoro-3-hydroxy-3-methylbutyl)nicotinamide] returned an IC50 of less than 1 nM. The EC50 in the assay with TNFα stood at 46 nM.

In turn, `CC(C)(O)[C@H](F)CNC(=O)c1cnc(-c2ccc3cc(C#N)cnn23)cc1Nc1ccc2c(c1)CNC2` [Example 863, (R)-6-(3-cyanopyrrolo[1,2-b]pyridazin-7-yl)-N-(2-fluoro-3-hydroxy-3-methylbutyl)-4-(isoindolin-5-ylamino)nicotinamide] yielded a half-maximal inhibitory concentration (IC50) on IRAK4 enzyme of less than 1 nM. In addition, the 50% effective concentration (EC50) in the assay with TNFα is 74 nM.

On to `CC(C)(O)[C@H](F)CNC(=O)c1cnc(-c2ccc3cc(C#N)cnn23)cc1Nc1ccc2c(c1)CN(C1COC1)C2` [Example 864, (R)-6-(3-cyanopyrrolo[1,2-b]pyridazin-7-yl)-N-(2-fluoro-3-hydroxy-3-methylbutyl)-4-((2-(oxetan-3-yl)isoindolin-5-yl)amino) nicotinamide], for which the IC50 at IRAK4 enzyme was less than 1 nM. In the assay with TNFα, the 50% effective concentration (EC50) came out at 69 nM.

`COC(=O)NC1(c2ccc(Nc3cc(-c4ccc5cc(C#N)cnn45)ncc3C(=O)N[C@H]3CC[C@H](NC(=O)C4CC4)CC3)cc2)CC1` [Example 866, methyl (1-(4-((2-(3-cyano-pyrrolo[1,2-b]pyridazin-7-yl)-5-(((1r,4r)-4-(cyclopropanecarboxamido)cyclohexyl)carbamoyl)pyridin-4-yl)amino)phenyl)cyclopropyl)carbamate] had an IC50 against IRAK4 enzyme of 1 nM. In the assay with TNFα, the concentration for a half-maximal effect (EC50) is 37 nM.

Turning to `[2H]C([2H])([2H])OC(=O)NC[C@H]1C[C@H](Nc2cc(-c3ccc4cc(C#N)cnn34)ncc2C(=O)NC[C@@H](F)C(C)(C)O)C1` [Example 867, methyl-d3 (((1R,3r)-3-((2-(3-cyanopyrrolo[1,2-b]pyridazin-7-yl)-5-(((R)-2-fluoro-3-hydroxy-3-methylbutyl)carbamoyl)pyridin-4-yl)amino)cyclo-butyl)methyl)carbamate], the IC50 against IRAK4 enzyme is less than 1 nM. The 50% effective concentration (EC50) with TNFα is 6 nM.

Turning to `COC(=O)N1CCN(c2ccc(Nc3cc(-c4ccc5cc(C#N)cnn45)ncc3C(=O)NC[C@@H](F)C(C)(C)O)cn2)CC1` [Example 870, (R)-methyl 4-(5-((2-(3-cyanopyrrolo[1,2-b]pyridazin-7-yl)-5-((2-fluoro-3-hydroxy-3-methylbutyl)carbamoyl)pyridin-4-yl)amino)pyridin-2-yl)piperazine-1-carboxylate], half-maximal inhibition on IRAK4 enzyme (IC50) was put at 1 nM. Moreover, the EC50 in the assay with TNFα turned out to be 81 nM.

For `CC(C)(O)[C@H](F)CNC(=O)c1cnc(-c2ccc3cc(C#N)cnn23)cc1Nc1ccc(N2CCN(C3COC3)CC2)nc1` [Example 871, (R)-6-(3-cyanopyrrolo[1,2-b]pyridazin-7-yl)-N-(2-fluoro-3-hydroxy-3-methylbutyl)-4-((6-(4-(oxetan-3-yl)piperazin-1-yl)pyridin-3-yl)amino)nicotinamide], the half-inhibitory concentration (IC50) against IRAK4 enzyme stood at 1 nM. The concentration giving a half-maximal response (EC50) with TNFα is 51 nM.

For `CC(C)(O)[C@H](F)CNC(=O)c1cnc(-c2ccc3cc(C#N)cnn23)cc1Nc1ccc(CNCC(F)F)cc1` [Example 872, (R)-6-(3-cyanopyrrolo[1,2-b]pyridazin-7-yl)-4-((4-(((2,2-difluoroethyl)amino)methyl)phenyl)amino)-N-(2-fluoro-3-hydroxy-3-methylbutyl)nicotinamide], the half-inhibitory concentration (IC50) on IRAK4 enzyme is less than 1 nM. In addition, the EC50 with TNFα amounted to 14 nM.

For the compound `CC1(C(=O)NC[C@H]2C[C@H](Nc3cc(-c4ccc5cc(C#N)cnn45)ncc3C(=O)NC[C@@H](F)C(C)(C)O)C2)COC1` [Example 873, 6-(3-cyanopyrrolo[1,2-b]pyridazin-7-yl)-N-((R)-2-fluoro-3-hydroxy-3-methylbutyl)-4-(((1r,3R)-3-((3-methyloxetane-3-carboxamido)methyl)cyclobutyl)amino) nicotinamide], at IRAK4 enzyme, the 50% inhibitory concentration (IC50) is less than 1 nM. Besides, the EC50 with TNFα was 102 nM.

Regarding `CC(C)(O)[C@H](F)CNC(=O)c1cnc(-c2ccc3cc(C#N)cnn23)cc1Nc1ccc(C(C)(C)N2CCOC2=O)cc1` [Example 874, (R)-6-(3-cyanopyrrolo[1,2-b]pyridazin-7-yl)-N-(2-fluoro-3-hydroxy-3-methylbutyl)-4-((4-(2-(2-oxooxazolidin-3-yl)propan-2-yl)phenyl)amino)nicotinamide], the half-maximal inhibitory concentration (IC50) against IRAK4 enzyme is less than 1 nM. Also, the EC50 with TNFα worked out at 13 nM.

`CC(C)(O)[C@H](F)CNC(=O)c1cnc(-c2ccc3cc(C#N)cnn23)cc1Nc1ccc(C(C)(C)N2CCCC2=O)cc1` [Example 875, (R)-6-(3-cyanopyrrolo[1,2-b]pyridazin-7-yl)-N-(2-fluoro-3-hydroxy-3-methyl-butyl)-4-((4-(2-(2-oxo-pyrrolidin-1-yl)propan-2-yl)phenyl)amino)nicotinamide] gave an IC50 against IRAK4 enzyme of 2 nM. Further, in the assay with TNFα, the EC50 came out at 64 nM.
